Experimental data from PMC5916808 (Journal of medicinal chemistry, 2017).
“And” between values parts separate entries of the source, which are not always exact repeats. Identical values can stand only once. One block for each compound: values may come before it.

Experiments:
[1] = system: AMPA or kainate receptors; conditions: cited from earlier work
[2] = ref Jensen, Egebjerg, Bundgaard, unpublished data; cited from earlier work
[3] = cited from earlier work
[4] = Pharmacokinetics and brain penetration after IP dosing, LC/MS/MS; assay type: in vivo, C57Bl/6 mice
[5] = target: T1, GluN1/GluN2D NMDA receptors (Rattus norvegicus, UniProt Q62645); assay type: cell-based
[6] = target: T2, GluN1/GluN2C NMDA receptors (Rattus norvegicus, UniProt Q00961); assay type: cell-based
GluK2 = GluK2 (Rattus norvegicus, UniProt P42260); assay: Two-electrode voltage clamp, GluK2 homomeric receptors in Xenopus oocytes; assay type: cell-based; conditions: 30 μM compound co-applied with 100 μM glutamate and 30 μM glycine, n=9
[7] = target: GluN1/GluN2B NMDA receptors (Rattus norvegicus, UniProt Q00960); assay type: cell-based; conditions: for fold increase in potency at GluN2B, thioamide compared to amide: 138 vs 2, 142 vs 97
[8] = target: T1, GluN1/GluN2D NMDA receptors; conditions: 30 μM; previously published data; cited from earlier work
[9] = target: T2, GluN1/GluN2C NMDA receptors; conditions: 30 μM; previously published data; cited from earlier work
[10] = system: GluN1/GluN2A, GluN1/GluN2B, GluN1/GluN2C, and GluN1/GluN2D NMDA receptors; assay: Two-electrode voltage clamp, activity profile across GluN2 subunits; assay type: cell-based, rat; conditions: potentiation of response to maximal glutamate and glycine
[11] = Solubility of test compound in oocyte recording solution; assay type: physicochemical; conditions: aqueous buffer
[12] = target: GluN1/GluN2D NMDA receptors (Rattus norvegicus, UniProt P35439+Q62645); assay type: cell-based
GluN1/GluN2B receptors = conditions: noncompetitive inhibitor; cited from earlier work
[13] = 30 μM co-applied with either 30 μM glutamate or 10 μM glycine
[14] = percentage of the initial glutamate (100 μM) and glycine (30 μM) current

GluN1/GluN2B NMDA receptors, sequence (Q00960 27-1482, other chains not shown): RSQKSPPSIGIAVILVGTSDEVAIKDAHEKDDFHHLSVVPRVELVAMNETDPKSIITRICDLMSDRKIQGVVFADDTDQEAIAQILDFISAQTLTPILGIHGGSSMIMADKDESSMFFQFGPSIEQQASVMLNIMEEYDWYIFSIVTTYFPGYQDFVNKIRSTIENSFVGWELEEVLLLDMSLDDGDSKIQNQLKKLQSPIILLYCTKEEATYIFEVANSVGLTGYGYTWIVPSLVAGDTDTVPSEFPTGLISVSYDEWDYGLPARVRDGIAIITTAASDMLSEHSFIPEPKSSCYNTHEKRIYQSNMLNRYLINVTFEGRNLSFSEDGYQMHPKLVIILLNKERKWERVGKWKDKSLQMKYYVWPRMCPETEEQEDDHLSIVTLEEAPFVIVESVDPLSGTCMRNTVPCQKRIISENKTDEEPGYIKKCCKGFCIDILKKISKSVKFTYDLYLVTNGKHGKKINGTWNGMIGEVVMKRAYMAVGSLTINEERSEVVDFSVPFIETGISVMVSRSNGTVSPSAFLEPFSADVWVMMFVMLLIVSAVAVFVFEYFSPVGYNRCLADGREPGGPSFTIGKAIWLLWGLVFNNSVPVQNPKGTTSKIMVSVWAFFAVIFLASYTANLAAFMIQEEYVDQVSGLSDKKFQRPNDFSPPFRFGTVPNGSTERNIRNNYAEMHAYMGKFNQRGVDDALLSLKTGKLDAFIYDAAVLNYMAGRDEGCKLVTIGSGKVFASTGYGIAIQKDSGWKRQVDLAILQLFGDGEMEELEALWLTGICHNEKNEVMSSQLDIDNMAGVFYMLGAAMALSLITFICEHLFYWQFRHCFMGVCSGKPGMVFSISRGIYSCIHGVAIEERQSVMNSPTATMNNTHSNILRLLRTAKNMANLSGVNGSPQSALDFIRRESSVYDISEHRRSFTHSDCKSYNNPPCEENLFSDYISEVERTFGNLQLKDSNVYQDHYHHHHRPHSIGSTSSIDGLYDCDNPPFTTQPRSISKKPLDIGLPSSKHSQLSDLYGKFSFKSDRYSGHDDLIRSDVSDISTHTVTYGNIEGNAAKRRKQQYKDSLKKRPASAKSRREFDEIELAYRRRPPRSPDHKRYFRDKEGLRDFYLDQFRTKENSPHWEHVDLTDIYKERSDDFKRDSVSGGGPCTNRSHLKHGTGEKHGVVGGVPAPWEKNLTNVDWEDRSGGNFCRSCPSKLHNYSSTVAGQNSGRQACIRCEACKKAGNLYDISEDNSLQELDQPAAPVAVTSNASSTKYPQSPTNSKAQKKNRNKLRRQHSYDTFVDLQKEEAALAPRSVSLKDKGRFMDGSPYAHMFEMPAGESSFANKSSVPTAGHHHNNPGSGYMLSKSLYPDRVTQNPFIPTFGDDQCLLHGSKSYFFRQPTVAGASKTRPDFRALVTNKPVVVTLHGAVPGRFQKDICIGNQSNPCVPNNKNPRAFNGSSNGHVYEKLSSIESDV
T2 sequence (Q00961 20-1237, other chains not shown): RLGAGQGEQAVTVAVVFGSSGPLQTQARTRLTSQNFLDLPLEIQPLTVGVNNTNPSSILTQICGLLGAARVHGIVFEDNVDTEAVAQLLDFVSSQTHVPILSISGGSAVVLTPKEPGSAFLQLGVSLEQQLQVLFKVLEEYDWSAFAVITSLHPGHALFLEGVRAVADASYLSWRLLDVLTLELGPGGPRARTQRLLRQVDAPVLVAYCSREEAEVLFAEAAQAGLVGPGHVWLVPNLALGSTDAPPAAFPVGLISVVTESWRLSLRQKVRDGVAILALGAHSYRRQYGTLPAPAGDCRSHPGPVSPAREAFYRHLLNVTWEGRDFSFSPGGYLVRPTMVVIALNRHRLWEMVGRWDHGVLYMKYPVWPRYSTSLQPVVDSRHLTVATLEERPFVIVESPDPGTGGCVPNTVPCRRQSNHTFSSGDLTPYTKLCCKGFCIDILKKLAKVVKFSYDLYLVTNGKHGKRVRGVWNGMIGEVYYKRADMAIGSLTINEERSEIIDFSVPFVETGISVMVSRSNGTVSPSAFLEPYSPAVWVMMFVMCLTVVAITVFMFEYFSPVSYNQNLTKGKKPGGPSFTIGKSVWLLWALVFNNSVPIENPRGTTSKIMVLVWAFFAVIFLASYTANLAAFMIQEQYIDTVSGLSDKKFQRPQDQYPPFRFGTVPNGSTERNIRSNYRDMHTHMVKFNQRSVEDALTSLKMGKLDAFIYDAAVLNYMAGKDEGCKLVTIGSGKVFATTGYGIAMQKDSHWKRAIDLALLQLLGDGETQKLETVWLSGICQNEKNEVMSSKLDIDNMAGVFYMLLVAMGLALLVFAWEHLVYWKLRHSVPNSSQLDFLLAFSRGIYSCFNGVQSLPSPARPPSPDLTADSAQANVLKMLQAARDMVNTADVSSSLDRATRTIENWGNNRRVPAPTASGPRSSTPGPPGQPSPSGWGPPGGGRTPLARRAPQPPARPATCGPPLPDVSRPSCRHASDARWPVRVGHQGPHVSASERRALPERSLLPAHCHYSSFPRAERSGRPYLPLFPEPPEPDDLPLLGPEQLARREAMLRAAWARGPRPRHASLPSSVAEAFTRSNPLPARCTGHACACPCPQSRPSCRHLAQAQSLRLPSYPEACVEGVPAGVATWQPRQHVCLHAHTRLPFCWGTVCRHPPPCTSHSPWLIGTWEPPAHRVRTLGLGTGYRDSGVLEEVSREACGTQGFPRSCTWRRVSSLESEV
T1 sequence (Q62645 28-1323, other chains not shown): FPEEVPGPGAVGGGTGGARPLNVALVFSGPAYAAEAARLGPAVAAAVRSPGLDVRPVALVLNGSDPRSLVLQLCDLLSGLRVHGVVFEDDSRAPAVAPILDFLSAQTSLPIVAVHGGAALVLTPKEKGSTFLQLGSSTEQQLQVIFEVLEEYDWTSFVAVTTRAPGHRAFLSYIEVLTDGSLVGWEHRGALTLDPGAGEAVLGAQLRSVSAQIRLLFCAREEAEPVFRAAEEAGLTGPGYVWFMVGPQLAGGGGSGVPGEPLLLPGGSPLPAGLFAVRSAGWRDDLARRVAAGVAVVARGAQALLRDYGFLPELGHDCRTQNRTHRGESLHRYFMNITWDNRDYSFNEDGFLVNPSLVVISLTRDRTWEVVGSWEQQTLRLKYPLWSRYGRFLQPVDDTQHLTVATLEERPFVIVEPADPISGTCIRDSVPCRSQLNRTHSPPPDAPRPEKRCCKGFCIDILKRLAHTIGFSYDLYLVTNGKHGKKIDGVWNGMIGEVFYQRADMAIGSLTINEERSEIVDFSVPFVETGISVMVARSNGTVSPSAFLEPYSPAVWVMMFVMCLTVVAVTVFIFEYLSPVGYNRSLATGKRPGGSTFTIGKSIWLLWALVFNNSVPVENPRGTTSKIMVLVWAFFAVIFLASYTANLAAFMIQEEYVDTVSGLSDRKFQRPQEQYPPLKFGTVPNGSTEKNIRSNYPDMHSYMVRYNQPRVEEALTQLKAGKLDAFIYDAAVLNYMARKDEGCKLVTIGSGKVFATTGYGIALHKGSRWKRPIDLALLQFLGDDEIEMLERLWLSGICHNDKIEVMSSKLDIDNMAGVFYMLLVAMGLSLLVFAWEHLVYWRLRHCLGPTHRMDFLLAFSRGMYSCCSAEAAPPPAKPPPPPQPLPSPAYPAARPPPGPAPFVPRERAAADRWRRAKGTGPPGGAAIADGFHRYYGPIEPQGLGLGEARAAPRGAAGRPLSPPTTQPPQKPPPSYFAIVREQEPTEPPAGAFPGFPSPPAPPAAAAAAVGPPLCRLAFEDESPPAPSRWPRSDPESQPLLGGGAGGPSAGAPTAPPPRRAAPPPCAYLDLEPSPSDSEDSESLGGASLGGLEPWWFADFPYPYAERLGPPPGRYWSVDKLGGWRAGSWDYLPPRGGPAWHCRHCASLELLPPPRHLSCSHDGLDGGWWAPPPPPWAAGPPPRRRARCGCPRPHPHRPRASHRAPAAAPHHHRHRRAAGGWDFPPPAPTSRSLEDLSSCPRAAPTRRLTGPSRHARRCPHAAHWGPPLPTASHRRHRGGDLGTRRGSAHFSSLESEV
GluN1/GluN2D NMDA receptors (Rattus norvegicus, UniProt P35439+Q62645), sequence (Q62645 28-1323, other chains not shown): as above
GluK2, sequence (P42260 32-908): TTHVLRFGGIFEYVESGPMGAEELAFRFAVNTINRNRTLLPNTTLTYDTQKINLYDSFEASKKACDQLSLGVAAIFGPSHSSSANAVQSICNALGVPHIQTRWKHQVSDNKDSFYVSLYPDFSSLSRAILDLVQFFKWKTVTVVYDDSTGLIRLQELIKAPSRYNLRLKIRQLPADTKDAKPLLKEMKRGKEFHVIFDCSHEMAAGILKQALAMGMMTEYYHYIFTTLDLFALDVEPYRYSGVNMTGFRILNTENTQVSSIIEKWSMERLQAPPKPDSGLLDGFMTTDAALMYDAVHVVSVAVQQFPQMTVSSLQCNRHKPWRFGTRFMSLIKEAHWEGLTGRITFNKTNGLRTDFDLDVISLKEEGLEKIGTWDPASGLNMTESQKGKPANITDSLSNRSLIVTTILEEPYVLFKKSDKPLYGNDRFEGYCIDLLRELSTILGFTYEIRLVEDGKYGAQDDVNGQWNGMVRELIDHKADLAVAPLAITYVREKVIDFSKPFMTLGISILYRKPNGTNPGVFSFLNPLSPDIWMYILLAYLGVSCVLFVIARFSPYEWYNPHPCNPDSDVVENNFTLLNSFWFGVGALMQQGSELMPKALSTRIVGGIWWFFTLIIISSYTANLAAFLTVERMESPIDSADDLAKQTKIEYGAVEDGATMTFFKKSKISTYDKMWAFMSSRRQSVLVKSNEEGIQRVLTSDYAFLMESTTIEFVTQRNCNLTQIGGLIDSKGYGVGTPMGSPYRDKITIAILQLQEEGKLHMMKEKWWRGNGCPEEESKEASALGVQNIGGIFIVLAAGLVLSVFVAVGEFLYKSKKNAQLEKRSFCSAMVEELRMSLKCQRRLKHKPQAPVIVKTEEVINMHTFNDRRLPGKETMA

Structure (SMILES): COc1ccc(OCC2c3cc(OC)c(OC)cc3CCN2C(=O)c2cccc(Cl)c2)cc1 (stereo not shown) [CIQ]
effect on AMPA or kainate receptors [1]: no effect on AMPA or kainate receptors | protein binding [2]: high protein binding | brain penetration [3]: brain penetrant

brain concentration ([4]; 10 mg/kg IP, at 15 and 30 min): 303 ng/mL | peak plasma concentration ([4]; 10 mg/kg IP, at 2 hours, n=3 mice): 789 ng/mL and 1.7 μM | concentration at 4 h ([4]; C57Bl/6, mouse, brain, intraperitoneal, 10 mg/kg): 169 ng/mL | Tmax ([4]; C57Bl/6, mouse, plasma, ip, 10 mg/kg): 2 h | agonist activity at GluN1/GluN2D [5, 13]: no agonist activity | agonist activity at GluN1/GluN2C [6, 13]: no agonist activity | response as % of the control response to glutamate alone, GluK2 (GluK2): 96+9% | agonist activity at GluN1/GluN2B [7, 13]: no agonist activity
Structure (SMILES): COc1ccc(OCC2c3ccc(OC(C)C)cc3CCN2C(=O)c2cccc(Cl)c2)cc1 (stereo not shown) [Compound 2, (3-Chlorophenyl)(6-isopropoxy-1-((4-methoxyphenoxy)methyl)-3,4-dihydroisoquinolin-2(1H)-yl)methanone]
behavioral observations post-dosing ([4]; 10 mg/kg i.p.): No behavioral abnormalities were observed

Structure (SMILES): COc1ccc(OCC2c3ccc(OC)cc3CCN2C(=O)c2cccc(Cl)c2)cc1 (stereo not shown) [Compound 86]
I30μM / Icontrol (mean ± SEM, %) GluN2D [8]: 215 ± 19% | I30μM / Icontrol (mean ± SEM, %) GluN2C [9]: 213 ± 13%

activity / subunit selectivity in words [10]: inactive at all subunits
Structure (SMILES): CCOc1ccc(OCC2c3ccc(OC(C)C)cc3CCN2C(=O)c2ccccc2)cc1 (stereo not shown) [Compound 95, (1-((4-Ethoxyphenoxy)methyl)-6-isopropoxy-3,4-dihydroisoquinolin-2(1H)-yl)(phenyl)methanone]

activity / subunit selectivity in words [10]: active at only GluN2B
Structure (SMILES): CCOc1ccc(OCC2c3ccc(OC(C)C)cc3CCN2C(=O)c2cccc(F)c2)cc1 (stereo not shown) [Compound 97, (1-((4-Ethoxyphenoxy)methyl)-6-isopropoxy-3,4-dihydroisoquinolin-2(1H)-yl)(3-fluorophenyl)methanone]

solubility [11]: < 30 µM
Structure (SMILES): CCOc1ccc(OCC2c3ccc(OC(C)C)cc3CCN2C(=O)c2cccc(-c3ccccc3)c2)cc1 (stereo not shown) [Compound 99, Biphenyl-3-yl(1-((4-ethoxyphenoxy)methyl)-6-isopropoxy-3,4-dihydroisoquinolin-2(1H)-yl)methanone]
activity / subunit selectivity in words [10]: inactive

Structure (SMILES): CCOc1ccc(OCC2c3ccc(OC(C)C)cc3CCN2C(=O)c2cccc(C)c2)cc1 (stereo not shown) [Compound 100, (1-((4-Ethoxyphenoxy)methyl)-6-isopropoxy-3,4-dihydroisoquinolin-2(1H)-yl)(m-tolyl)methanone]
activity / subunit selectivity in words [10]: inactive

Structure (SMILES): CCOc1ccc(OCC2c3ccc(OC(C)C)cc3CCN2C(=O)c2cccc(OC)c2)cc1 (stereo not shown) [Compound 101, (1-((4-Ethoxyphenoxy)methyl)-6-isopropoxy-3,4-dihydroisoquinolin-2(1H)-yl)(3-methoxyphenyl)methanone]
activity / subunit selectivity in words [10]: inactive

activity / subunit selectivity in words [10]: complete loss of activity
Structure (SMILES): CCOc1ccc(OCC2c3ccc(OC(C)C)cc3CCN2C(=O)c2ccccc2F)cc1 (stereo not shown) [Compound 102, (1-((4-Ethoxyphenoxy)methyl)-6-isopropoxy-3,4-dihydroisoquinolin-2(1H)-yl)(2-fluorophenyl)methanone]

activity / subunit selectivity in words [10]: complete loss of activity
Structure (SMILES): CCOc1ccc(OCC2c3ccc(OC(C)C)cc3CCN2C(=O)c2ccccc2Cl)cc1 (stereo not shown) [Compound 103, (2-Chlorophenyl)(1-((4-ethoxyphenoxy)methyl)-6-isopropoxy-3,4-dihydroisoquinolin-2(1H)-yl)methanone]

activity / subunit selectivity in words [10]: complete loss of activity
Structure (SMILES): CCOc1ccc(OCC2c3ccc(OC(C)C)cc3CCN2C(=O)c2ccc(F)cc2)cc1 (stereo not shown) [Compound 104, (1-((4-Ethoxyphenoxy)methyl)-6-isopropoxy-3,4-dihydroisoquinolin-2(1H)-yl)(4-fluorophenyl)methanone]

activity / subunit selectivity in words [10]: complete loss of activity
Structure (SMILES): CCOc1ccc(OCC2c3ccc(OC(C)C)cc3CCN2C(=O)c2ccc(Cl)cc2)cc1 (stereo not shown) [Compound 105, (4-Chlorophenyl)(1-((4-ethoxyphenoxy)methyl)-6-isopropoxy-3,4-dihydroisoquinolin-2(1H)-yl)methanone]

Structure (SMILES): CCOc1ccc(OCC2c3ccc(OC(C)C)cc3CCN2C(=O)c2ccc(F)c(F)c2)cc1 (stereo not shown) [Compound 106, (3,4-Difluorophenyl)(1-((4-ethoxyphenoxy)methyl)-6-isopropoxy-3,4-dihydroisoquinolin-2(1H)-yl)methanone]
activity / subunit selectivity in words [10]: active

solubility [11]: < 10 µM
Structure (SMILES): CCOc1ccc(OCC2c3ccc(OC(C)C)cc3CCN2C(=O)c2ccc(Cl)c(Cl)c2)cc1 (stereo not shown) [Compound 107, (3,4-Dichlorophenyl)(1-((4-ethoxyphenoxy)methyl)-6-isopropoxy-3,4-dihydroisoquinolin-2(1H)-yl)methanone]
activity / subunit selectivity in words [10]: active

Structure (SMILES): CCOc1ccc(OCC2c3ccc(OC(C)C)cc3CCN2C(=O)c2ccc(F)c(Cl)c2)cc1 (stereo not shown) [Compound 108, (3-Chloro-4-fluorophenyl)(1-((4-ethoxyphenoxy)methyl)-6-isopropoxy-3,4-dihydroisoquinolin-2(1H)-yl)methanone]
activity / subunit selectivity in words [10]: active

solubility [11]: < 30 µM
Structure (SMILES): CCOc1ccc(OCC2c3ccc(OC(C)C)cc3CCN2C(=O)c2cc(Cl)cc(Cl)c2)cc1 (stereo not shown) [Compound 109]

activity / subunit selectivity in words [10]: all activity was lost
Structure (SMILES): COc1ccccc1OCC1c2ccc(OC(C)C)cc2CCN1C(=O)c1cccc(Cl)c1 (stereo not shown) [Compound 111, (3-Chlorophenyl)(6-isopropoxy-1-((2-methoxyphenoxy)methyl)-3,4-dihydroisoquinolin-2(1H)-yl)methanone]

activity / subunit selectivity in words [10]: moderately GluN2B-selective
Structure (SMILES): CC(C)Oc1ccc(OCC2c3ccc(OC(C)C)cc3CCN2C(=O)c2cccc(Cl)c2)cc1 (stereo not shown) [Compound 113, (3-Chlorophenyl)(6-isopropoxy-1-((4-isopropoxyphenoxy)methyl)-3,4-dihydroisoquinolin-2(1H)-yl)methanone]

fitted maximum response GluN2D [5, 14]: 493% | EC50 [12]: 11 µM | fitted maximum response GluN2B [7, 14]: 391%
Structure (SMILES): COc1ccc(OCC2c3ccc(OC(C)C)cc3CCN2C(=O)c2cccc(F)c2)cc1 (stereo not shown) [Compound 114, (3-Fluorophenyl)(6-isopropoxy-1-((4-methoxyphenoxy)methyl)-3,4-dihydroisoquinolin-2(1H)-yl)methanone]

fold increase in potency at GluN2D, thioamide compared to amide ([5]; 138 vs 2): ~10 fold | fold increase in potency at GluN2C, thioamide compared to amide ([6]; 138 vs 2): ~4 fold | fold increase in potency at GluN2B, thioamide compared to amide [7]: ~10 fold
Structure (SMILES): COc1ccc(OCC2c3ccc(OC(C)C)cc3CCN2C(=S)c2cccc(Cl)c2)cc1 (stereo not shown) [Compound 138, (3-Chlorophenyl)(6-isopropoxy-1-((4-methoxyphenoxy)methyl)-3,4-dihydroisoquinolin-2(1H)-yl)methanethione]

fold increase in potency at GluN2B, thioamide compared to amide [7]: 13 fold
Structure (SMILES): CCOc1ccc(OCC2c3ccc(OC(C)C)cc3CCN2C(=S)c2cccc(F)c2)cc1 (stereo not shown) [Compound 142, (1-((4-Ethoxyphenoxy)methyl)-6-isopropoxy-3,4-dihydroisoquinolin-2(1H)-yl)(3-fluorophenyl)methanethione]

Structure (SMILES): CCOc1ccc(OC[C@H]2c3ccc(OC(C)C)cc3CCN2C(=S)c2cccc(F)c2)cc1 [R-(+)-142, (R)-(1-((4-Ethoxyphenoxy)methyl)-6-isopropoxy-3,4-dihydroisoquinolin-2(1H)-yl)(3-fluorophenyl)methanethione]
activity / subunit selectivity in words [10]: no detectable potentiation of any NMDA receptor subunit combinations

Structure (SMILES): CC(C(O)c1ccc(O)cc1)N1CCC(Cc2ccccc2)CC1 (stereo not shown) [ifenprodil]
fold more potent at GluN2B-containing receptors compared to GluN2A, GluN2C, or GluN2D (GluN1/GluN2B receptors): > 100 fold
